Reference: patent US20250195530A1, “POLQ INHIBITORS” (ASTRAZENECA AB, priority 2022, published 2025)
Like-named read-outs stand apart in the source and are kept apart here.

Test system: DLD-1 BRCA2−/− cells
Test: Homologous recombination synthetic lethal inhibition of proliferation, DLD-1 BRCA2-/- (Cell Titre Glo 3D)
Format: cell-based
Conditions: for IC50: Homo sapiens
How it was run: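 Luminescent Cell Titre Glo 3D readout, taken on day 12 for homologous-recombination-deficient DLD-1 BRCA2−/− and day 7 for the wild-type control, after compound refresh on day 6. Compounds spanned 10 μM to 0.51 nM in three-fold steps; IC50 defined as 50% reduction of average maximum signal.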

[1] = DLD-1, proliferation, luminescence, taken as DLD-1 BRCA2-/-, read-out: POLQ PD Prolif Lumin (converted)
[2] = DLD-1, first proliferation column (c5), taken as DLD-1 BRCA2-/-, read-out: POLQ PD Prolif Lumin (converted)
[3] = DLD-1, first proliferation column (c5), DLD-1 BRCA2-/-, read-out: POLQ PD Prolif Lumin (converted)
[4] = DLD-1, DLD-1 BRCA2-/- proliferation, column head only partly shown, read-out: POLQ PD Prolif Lumin (converted)
[5] = DLD-1, DLD-1 BRCA2 −/−, mean, read-out: POLQ PD Prolif Lumin BRCA2 −/− mean pIC50 (converted)
[6] = DLD-1, DLD-1 BRCA2 −/− cells, mean, read-out: POLQ PD Prolif Lumin BRCA2 −/− mean pIC50 (converted)

CC(CCCc1ccc(-c2nc3c(OC4(C)CC4)ncnc3n2Cc2cccc(Cl)c2)c(Cl)c1)C(=O)O (racemic) [Example T434, 5-(3-chloro-4-(9-(3-chlorobenzyl)-6-(1-methylcyclopropoxy)-9H-purin-8-yl)phenyl)-2-methylpentanoic acid]
IC50 [1]: 158 nM

Cc1ccnc(Cn2c(-c3ccc(OCC(=O)N(C)CCO)cc3Cl)nc3c(OC4(C)CC4)ncnc32)c1 [Example T374, 2-(3-chloro-4-(6-(1-methylcyclopropoxy)-9-((4-methylpyridin-2-yl)methyl)-9H-purin-8-yl)phenoxy)-N-(2-hydroxyethyl)-N-methylacetamide]
IC50 [2]: 1260 nM

Cc1ccnc(Cn2c(-c3ccc(OCC(=O)N[C@H](C)CCO)cc3Cl)nc3c(OC4(C)CC4)ncnc32)c1 [Example T516, (R)-2-(3-chloro-4-(6-(1-methylcyclopropoxy)-9-((4-methylpyridin-2-yl)methyl)-9H-purin-8-yl)phenoxy)-N-(4-hydroxybutan-2-yl)acetamide]
IC50 [3]: 200 nM

Cc1ccnc(Cn2c(-c3ccc(C(=O)N4CCOCC4)cc3Cl)nc3c(OC4(C)CC4)ncnc32)c1 [Example T315, (3-chloro-4-(6-(1-methylcyclopropoxy)-9-((4-methylpyridin-2-yl)methyl)-9H-purin-8-yl)phenyl)(morpholino)methanone]
IC50 [2]: 1580 nM

Cc1ccnc(Cn2c(-c3ccc(C(=O)N4CC[C@@](C)(O)C4)cc3Cl)nc3c(OC4(C)CC4)ncnc32)c1 [Example T463, (R)-(3-chloro-4-(6-(1-methylcyclopropoxy)-9-((4-methylpyridin-2-yl)methyl)-9H-purin-8-yl)phenyl)(3-hydroxy-3-methylpyrrolidin-1-yl)methanone]
IC50 [1]: 1580 nM

C#CCNC(=O)COc1ccc(-c2nc3c(OC4(C)CC4)ncnc3n2Cc2cc(C)ccn2)c(Cl)c1 [Example T266, 2-(3-chloro-4-(6-(1-methylcyclopropoxy)-9-((4-methylpyridin-2-yl)methyl)-9H-purin-8-yl)phenoxy)-N-(prop-2-yn-1-yl)acetamide]
IC50 [4]: 158 nM

COc1ncc(Cl)cc1Cn1c(-c2ccc(OCCC(C)C(=O)O)cc2Cl)nc2c(OC3(C)CC3)ncnc21 (racemic) [Example U53, 4-(3-chloro-4-(9-((5-chloro-2-methoxypyridin-3-yl)methyl)-6-(1-methylcyclopropoxy)-9H-purin-8-yl)phenoxy)-2-methylbutanoic acid]
IC50 [5]: 316 nM

Cc1ccnc(Cn2c(-c3ccc(C(=O)NC4COC4)cc3Cl)nc3c(OC4(C)CC4)ncnc32)c1 [Example T177, 3-chloro-4-(6-(1-methylcyclopropoxy)-9-((4-methylpyridin-2-yl)methyl)-9H-purin-8-yl)-N-(oxetan-3-yl)benzamide]
IC50 [3]: 1000 nM

CC(CCOc1ccc(-c2nc3c(OC4(C)CC4)ncnc3n2Cc2cccc(C3CC3)c2)c(Cl)c1)C(=O)O (racemic) [Example T601, 4-(3-chloro-4-(9-(3-cyclopropylbenzyl)-6-(1-methylcyclopropoxy)-9H-purin-8-yl)phenoxy)-2-methylbutanoic acid]
IC50 (DLD-1, first proliferation column, DLD-1 BRCA2-/-, read-out: POLQ PD Prolif Lumin (converted)): 794 nM

Cc1ccnc(Cn2c(-c3ccc(N4CCOCC4=O)cc3Cl)nc3c(OC4(C)CC4)ncnc32)c1 [Example T182, 4-(3-chloro-4-(6-(1-methylcyclopropoxy)-9-((4-methylpyridin-2-yl)methyl)-9H-purin-8-yl)phenyl)morpholin-3-one]
IC50 [3]: 631 nM

Cc1ccnc(Cn2c(-c3ccc(OCC(=O)N4CCOCC4)cc3Cl)nc3c(OC4(C)CC4)ncnc32)c1 [Example T475, 2-(3-chloro-4-(6-(1-methylcyclopropoxy)-9-((4-methylpyridin-2-yl)methyl)-9H-purin-8-yl)phenoxy)-1-morpholinoethan-1-one]
IC50 [1]: 251 nM

Cc1nnc(Cn2c(-c3ccc(CC(N)=O)cc3Cl)nc3c(OC4(C)CC4)ncnc32)o1 [Example T2, 2-(3-chloro-4-(9-((5-methyl-1,3,4-oxadiazol-2-yl)methyl)-6-(1-methylcyclopropoxy)-9H-purin-8-yl)phenyl)acetamide]
IC50 [6]: > 10000 nM

CC1(Oc2ncnc3c2nc(-c2ccc(CC(N)=O)cc2Cl)n3CCc2nccs2)CC1 [Example T7, 2-(3-chloro-4-(6-(1-methylcyclopropoxy)-9-(2-(thiazol-2-yl)ethyl)-9H-purin-8-yl)phenyl)acetamide]
IC50 [6]: > 10000 nM

Cc1ccnc(Cn2c(-c3ccc(C(=O)NC[C@H](C)O)cc3Cl)nc3c(OC4(C)CC4)ncnc32)c1 [Example T218, (S)-3-chloro-N-(2-hydroxypropyl)-4-(6-(1-methylcyclopropoxy)-9-((4-methylpyridin-2-yl)methyl)-9H-purin-8-yl)benzamide]
IC50 [4]: 631 nM

CC1(Oc2ncnc3c2nc(-c2ccc(O[C@H]4CC[C@H](C(=O)O)CC4)cc2Cl)n3Cc2cc(Cl)ccc2F)CC1 [Example U49, (1r,4r)-4-(3-chloro-4-(9-(5-chloro-2-fluorobenzyl)-6-(1-methylcyclopropoxy)-9H-purin-8-yl)phenoxy)cyclohexane-1-carboxylic acid]
POLQ PD Prolif Lumin BRCA2 −/− mean pIC50 (DLD-1 BRCA2 −/−, mean): 7.3

Cc1ccnc(Cn2c(-c3ccc(OCC(F)F)cc3Cl)nc3c(OC4(C)CC4)ncnc32)c1 [Example T47, 8-(2-chloro-4-(2,2-difluoroethoxy)phenyl)-6-(1-methylcyclopropoxy)-9-((4-methylpyridin-2-yl)methyl)-9H-purine]
IC50 [6]: 200 nM

Cc1nc(Cn2c(-c3ccc(CC(N)=O)cc3Cl)nc3c(OC4(C)CC4)ncnc32)cs1 [Example T6, 2-(3-chloro-4-(6-(1-methylcyclopropoxy)-9-((2-methylthiazol-4-yl)methyl)-9H-purin-8-yl)phenyl)acetamide]
IC50 [6]: 7940 nM

COc1ccc(F)cc1Cn1c(-c2cccc(OCC[C@H](C)C(=O)O)c2Cl)nc2c(OC3(C)CC3)ncnc21 [Example U72, (S)-4-(2-chloro-3-(9-(5-fluoro-2-methoxybenzyl)-6-(1-methylcyclopropoxy)-9H-purin-8-yl)phenoxy)-2-methylbutanoic acid]
IC50 [5]: 1.58 nM

CC1(Oc2ncnc3c2nc(-c2ccc(CC(N)=O)cc2Cl)n3Cc2cc(C(F)(F)F)ccn2)CC1 [Example T36, 2-(3-chloro-4-(6-(1-methylcyclopropoxy)-9-((4-(trifluoromethyl)pyridin-2-yl)methyl)-9H-purin-8-yl)phenyl)acetamide]
IC50 [6]: 501 nM

Cc1ccnc(Cn2c(-c3ccc(OCC(F)CO)cc3Cl)nc3c(OC4(C)CC4)ncnc32)c1 (single isomer, unassigned) [Example T109, 3-(3-chloro-4-(6-(1-methylcyclopropoxy)-9-((4-methylpyridin-2-yl)methyl)-9H-purin-8-yl)phenoxy)-2-fluoropropan-1-ol]
IC50 [3]: 158 nM

Cc1ccnc(Cn2c(-c3ccc(OCC(=O)N4CC(O)C4)cc3Cl)nc3c(OC4(C)CC4)ncnc32)c1 [Example T322, 2-(3-chloro-4-(6-(1-methylcyclopropoxy)-9-((4-methylpyridin-2-yl)methyl)-9H-purin-8-yl)phenoxy)-1-(3-hydroxyazetidin-1-yl)ethan-1-one]
IC50 [2]: 631 nM

Cc1ccnc(Cn2c(-c3ccc(OCCN4CCNCC4=O)cc3Cl)nc3c(OC4(C)CC4)ncnc32)c1 [Example T498, 1-(2-(3-chloro-4-(6-(1-methylcyclopropoxy)-9-((4-methylpyridin-2-yl)methyl)-9H-purin-8-yl)phenoxy)ethyl)piperazin-2-one]
IC50 [3]: 316 nM

Cc1cnc(Cn2c(-c3ccc(OCCN4CC(O)C4)cc3Cl)nc3c(OC4(C)CC4)ncnc32)s1 [Example T141, 1-(2-(3-chloro-4-(6-(1-methylcyclopropoxy)-9-((5-methylthiazol-2-yl)methyl)-9H-purin-8-yl)phenoxy)ethyl)azetidin-3-ol]
IC50 [3]: 501 nM

Cc1ccnc(Cn2c(-c3ccc(C(=O)NCCCF)cc3Cl)nc3c(OC4(C)CC4)ncnc32)c1 [Example T191, 3-chloro-N-(3-fluoropropyl)-4-(6-(1-methylcyclopropoxy)-9-((4-methylpyridin-2-yl)methyl)-9H-purin-8-yl)benzamide]
IC50 [3]: 398 nM

Cc1ccnc(Cn2c(-c3ccc(OCC(=O)NC4CC(F)C4)cc3Cl)nc3c(OC4(C)CC4)ncnc32)c1 (stereo not shown) [Example T421, 2-(3-chloro-4-(6-(1-methylcyclopropoxy)-9-((4-methylpyridin-2-yl)methyl)-9H-purin-8-yl)phenoxy)-N-(3-fluorocyclobutyl)acetamide]
IC50 [1]: 251 nM

CC(CCOc1ccc(-c2nc3c(OC4(C)CC4)ncnc3n2Cc2c(F)cccc2F)c(Cl)c1)C(=O)O (single isomer, unassigned) [Example T263, 4-(3-chloro-4-(9-(2,6-difluorobenzyl)-6-(1-methylcyclopropoxy)-9H-purin-8-yl)phenoxy)-2-methylbutanoic acid]
IC50 [4]: 794 nM

Cc1ccnc(Cn2c(-c3ccc(OC4COC4)cc3Cl)nc3c(OC4(C)CC4)ncnc32)c1 [Example T103, 8-(2-chloro-4-(oxetan-3-yloxy)phenyl)-6-(1-methylcyclopropoxy)-9-((4-methylpyridin-2-yl)methyl)-9H-purine]
IC50 [6]: 158 nM

Cc1ccnc(Cn2c(-c3ccc(CCNS(C)(=O)=O)cc3Cl)nc3c(OC4(C)CC4)ncnc32)c1 [Example T143, N-(3-chloro-4-(6-(1-methylcyclopropoxy)-9-((4-methylpyridin-2-yl)methyl)-9H-purin-8-yl)phenethyl)methanesulfonamide]
IC50 [3]: 398 nM
